Tests used:
human recombinant HDAC6 = biological target: T1, human recombinant HDAC6 (Homo sapiens, UniProt Q9UBN7); assay: HDAC6 enzyme activity inhibition (fluorimetric, in vitro); assay type: biochemical; details: samples at 0.1, 1, 10, 100 and 1000 nM
T1 construct: purchased Calbiochem 382180
T1 sequence (Q9UBN7 1-1215): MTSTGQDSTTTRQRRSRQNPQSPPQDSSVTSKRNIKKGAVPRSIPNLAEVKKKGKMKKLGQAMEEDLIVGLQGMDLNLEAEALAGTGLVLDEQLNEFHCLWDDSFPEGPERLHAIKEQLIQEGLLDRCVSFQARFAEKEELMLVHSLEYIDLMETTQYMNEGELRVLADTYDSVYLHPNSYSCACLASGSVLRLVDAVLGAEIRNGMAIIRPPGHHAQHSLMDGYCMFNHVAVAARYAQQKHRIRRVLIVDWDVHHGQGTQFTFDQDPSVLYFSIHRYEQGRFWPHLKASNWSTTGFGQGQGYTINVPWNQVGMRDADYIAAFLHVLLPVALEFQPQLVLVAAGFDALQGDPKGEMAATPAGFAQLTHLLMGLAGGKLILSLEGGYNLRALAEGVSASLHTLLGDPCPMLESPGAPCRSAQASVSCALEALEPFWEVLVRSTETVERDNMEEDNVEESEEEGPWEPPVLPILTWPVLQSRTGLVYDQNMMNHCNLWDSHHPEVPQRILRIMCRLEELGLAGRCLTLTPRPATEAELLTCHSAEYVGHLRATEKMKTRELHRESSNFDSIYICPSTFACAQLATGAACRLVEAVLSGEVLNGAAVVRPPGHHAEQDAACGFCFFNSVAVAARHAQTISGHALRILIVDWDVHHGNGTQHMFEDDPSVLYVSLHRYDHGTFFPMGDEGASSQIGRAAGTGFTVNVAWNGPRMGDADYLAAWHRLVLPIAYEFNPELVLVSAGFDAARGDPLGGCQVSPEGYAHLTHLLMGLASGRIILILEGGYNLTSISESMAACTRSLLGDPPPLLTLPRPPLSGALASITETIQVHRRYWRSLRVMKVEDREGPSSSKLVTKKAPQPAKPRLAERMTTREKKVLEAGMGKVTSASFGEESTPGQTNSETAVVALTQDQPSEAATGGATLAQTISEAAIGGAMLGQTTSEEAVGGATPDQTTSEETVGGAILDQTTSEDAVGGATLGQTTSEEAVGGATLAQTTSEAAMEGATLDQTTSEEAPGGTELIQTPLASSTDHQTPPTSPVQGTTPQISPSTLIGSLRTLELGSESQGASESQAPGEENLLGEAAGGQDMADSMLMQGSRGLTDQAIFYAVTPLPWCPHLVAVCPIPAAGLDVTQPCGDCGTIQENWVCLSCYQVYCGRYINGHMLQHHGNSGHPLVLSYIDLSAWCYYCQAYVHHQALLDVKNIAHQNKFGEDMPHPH
Experimental: (§1) A HDAC enzyme inhibitory capacity of a test material was measured by using HDAC1 Fluorimetric Drug Discovery Assay Kit (Enzolifesciences: BML-AK511) and HDAC6 human recombinant (Calbiochem: 382180). For a HDAC1 assay, samples were treated at a concentration of 100, 1000 and 10000 nM. For a HDAC6 assay, samples were treated at a concentration of 0.1, 1, 10, 100 and 1000 nM.
(§2) For the test on the HDAC1 enzyme activity, human recombinant HDAC1 (BML-SE456) was used as a zymogen and Fluor de Lys®-SIRT1 (BNL-KI177) was used as a substrate. A 5-fold dilution of the compound was divided into a 96-well plate, after which 0.3 μg of the enzyme and […] of the substrate were inserted into each well and subjected to reaction at 37° C. for 60 minutes, such that Fluor de Lys® Developer II (BML-K1176) was inserted thereinto and subjected to reaction for 30 minutes and finished. After that, a fluorescence value (Ex 360, Em 460) was measured with a multi-plate reader (FlexStation 3, Molecular Device). An experiment on HDAC6 enzyme was conducted in accordance with the same protocol as in the HDAC1 enzyme activity test method by using human recombinant HDAC6 (382180) of Calbiochem Inc. For final result values, each IC50 value was calculated with GraphPad Prism 4.0 program.

human recombinant HDAC1 = biological target: T2, human recombinant HDAC1 (Homo sapiens, UniProt Q13547); assay: HDAC1 enzyme activity inhibition (HDAC1 Fluorimetric Drug Discovery Assay Kit, in vitro); assay type: biochemical; details: samples at 100, 1000 and 10000 nM
T2 construct: purchased Enzolifesciences BML-SE456
Experimental: as §1, §2

T2 sequence (Q13547 whole entry): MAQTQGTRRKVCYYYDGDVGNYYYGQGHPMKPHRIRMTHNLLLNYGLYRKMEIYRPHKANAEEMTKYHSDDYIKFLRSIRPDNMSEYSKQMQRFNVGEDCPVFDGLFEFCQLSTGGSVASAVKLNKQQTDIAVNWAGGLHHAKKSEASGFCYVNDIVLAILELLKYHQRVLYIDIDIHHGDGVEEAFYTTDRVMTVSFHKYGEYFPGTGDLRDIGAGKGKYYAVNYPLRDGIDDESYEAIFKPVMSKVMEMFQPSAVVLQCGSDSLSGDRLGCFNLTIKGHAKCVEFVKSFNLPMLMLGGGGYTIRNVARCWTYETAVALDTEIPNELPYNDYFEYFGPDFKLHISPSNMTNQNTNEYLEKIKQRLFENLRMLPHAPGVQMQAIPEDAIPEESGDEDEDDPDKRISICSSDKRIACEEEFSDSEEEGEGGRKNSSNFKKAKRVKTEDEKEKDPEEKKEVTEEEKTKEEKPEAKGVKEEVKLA

SMILES	IC50 (human recombinant HDAC6) [nM]	IC50 (human recombinant HDAC1) [nM]
N=S1(=O)CCN(S(=O)(=O)N(Cc2ccc(-c3nnc(C(F)F)o3)cn2)c2ccccc2)CC1 [Compound 19, N-((5-(5-(difluoromethyl)-1,3,4-oxadiazol-2-yl)pyridin-2-yl)methyl)-1-imino-N-phenylthiomorpholin-4-sulfonamide 1-oxide]	19.7	> 10000
N=S1(=O)C[C@@H]2C[C@H]1CN2C(=O)N(Cc1ccc(-c2nnc(C(F)F)o2)cc1F)c1ccccc1 (stereo partly drawn) [Compound 68, (1S,4S)—N-[[4-[5-(difluoromethyl)-1,3,4-oxadiazol-2-yl]-2-fluoro-phenyl]methyl]-2-imino-2-oxo-N-phenyl-2lambda6-thia-5-azabicyclo[2.2.1]heptan-5-carboxamide]	39	> 10000
CS(=N)(=O)C1CCN(C(=O)N(Cc2ccc(-c3nnc(C(F)F)o3)cc2F)c2ccccc2)CC1 (stereo not shown) [Compound 75, N-[[4-[5-(difluoromethyl)-1,3,4-oxadiazol-2-yl]-2-fluoro-phenyl]methyl]-4-(methylsulfonimidoyl)-N-phenyl-piperidin-1-carboxamide]	96.3	> 10000
N=S1(=O)CCN(c2c(N(Cc3ncc(-c4nnc(C(F)F)o4)cc3F)c3ccccc3)c(=O)c2=O)CC1 [Compound 61, 3-(((5-(5-(difluoromethyl)-1,3,4-oxadiazol-2-yl)-3-fluoropyridin-2-yl)methyl)(phenyl)amino)-4-(1-imino-1-oxidothiomorpholino)cyclobut-3-en-1,2-dione]	29.8	> 10000
N=S1(=O)CCN(C(=O)N(Cc2ccc(-c3nnc(C(F)(F)F)o3)cn2)c2ccccc2)CC1 [Compound 9, 1-imino-N-phenyl-N-((5-(5-(trifluoromethyl)-1,3,4-oxadiazol-2-yl)pyridin-2-yl)methyl)thiomorpholine-4-carboxamide 1-oxide]	280	> 10000
CC1CN(C(=O)N(Cc2ccc(-c3nnc(C(F)F)o3)cn2)c2ccc(F)cc2)CC(C)S1(=N)=O (stereo not shown) [Compound 64, N-[[5-[5-(difluoromethyl)-1,3,4-oxadiazol-2-yl]-2-pyridyl]methyl]-N-(4-fluorophenyl)-1-imino-2,6-dimethyl-1-oxo-1,4-thiazinan-4-carboxamide]	123	> 10000
N=S1(=O)CC(N2C[C@@H]3C[C@H]2CN3c2c(N(Cc3ccc(-c4nnc(C(F)F)o4)cn3)c3ccccc3)c(=O)c2=O)C1 (stereo partly drawn) [Compound 87, 3-[N-[[5-[5-(difluoromethyl)-1,3,4-oxadiazol-2-yl]-2-pyridyl]methyl]anilino]-4-[(1S,4S)-5-(1-imino-1-oxo-thiethane-3-yl)-2,5-diazabicyclo[2.2.1]heptan-2-yl]cyclobut-3-en-1,2-dione]	37.4	> 10000
CCOP(=O)(N=S1(=O)CCN(C(=O)N(Cc2ccc(-c3nnc(C(F)F)o3)cc2F)c2ccc(F)c(F)c2)CC1)OCC [Compound 29, Diethyl (4-((4-(5-(difluoromethyl)-1,3,4-oxadiazol-2-yl)-2-fluorobenzyl)(3,4-difluorophenyl)carbamoyl)-1-oxidothiomorpholin-1-ylidene)phosphoramidate]	78.8	> 10000
COc1cccc(N(Cc2ccc(-c3nnc(C(F)F)o3)cc2F)S(=O)(=O)N2CCS(=N)(=O)CC2)c1 [Compound 73, N-[[4-[5-(difluoromethyl)-1,3,4-oxadiazol-2-yl]-2-fluoro-phenyl]methyl]-1-imino-N-(3-methoxyphenyl)-1-oxo-1,4-thiazinan-4-sulfonamide]	72.5	> 10000

Further lines, results first:

IC50 (human recombinant HDAC6) [nM]	IC50 (human recombinant HDAC1) [nM]	SMILES
140	> 10000	N=S1(=O)CCN(C(=O)N(Cc2ncc(-c3nnc(C(F)F)o3)cc2F)c2ccccc2F)CC1 [Compound 55]
32.6	> 10000	N=S1(=O)CCN(S(=O)(=O)N(Cc2ccc(-c3nnc(C(F)F)o3)cc2F)c2ccccc2)CC1 [Compound 18, N-(4-(5-(difluoromethyl)-1,3,4-oxadiazol-2-yl)-2-fluorobenzyl)-1-imino-N-phenylthiomorpholin-4-sulfonamide 1-oxide]
42.6	> 10000	N=S1(=O)CCN(C(=O)N(Cc2ccc(-c3nnc(C(F)F)o3)cn2)c2cccs2)CC1 [Compound 16, N-((5-(5-(difluoromethyl)-1,3,4-oxadiazol-2-yl)pyridin-2-yl)methyl)-1-imino-N-(thiophen-2-yl)thiomorpholin-4-carboxamide 1-oxide]
91.5	> 10000	N=S1(=O)CCN(C(=O)N(Cc2ccc(-c3nnc(C(F)F)o3)cc2F)c2cccc(-n3cccc3)c2)CC1 [Compound 34, N-(3-(1H-pyrrol-1-yl)phenyl)-N-(4-(5-(difluoromethyl)-1,3,4-oxadiazol-2-y1)-2-fluorobenzyl)-1-iminothiomorpholin-4-carboxamide 1-oxide]
86.6	> 10000	COc1ccc(N(Cc2ccc(-c3nnc(C(F)F)o3)cc2F)C(=O)N2CCS(=N)(=O)CC2)cc1 [Compound 27, N-(4-(5-(difluoromethyl)-1,3,4-oxadiazol-2-y1)-2-fluorobenzyl)-1-imino-N-(4-methoxyphenyl)thiomorpholin-4-carboxamide 1-oxide]
78.7	> 10000	N=S1(=O)CCN(S(=O)(=O)N(Cc2ccc(-c3nnc(C(F)F)o3)cc2F)c2ccc(F)cc2)CC1 [Compound 78, N-[[4-[5-(difluoromethyl)-1,3,4-oxadiazol-2-yl]-2-fluoro-phenyl]methyl]-N-(4-fluorophenyl)-1-imino-1-oxo-1,4-thiazinan-4-sulfonamide]
72.6	> 10000	N=S1(=O)CCN(C(=O)N(Cc2ccc(-c3nnc(C(F)F)o3)cc2F)c2ccccc2F)CC1 [Compound 56, N-(4-(5-(difluoromethyl)-1,3,4-oxadiazol-2-yl)-2-fluorobenzyl)-N-(2-fluorophenyl)-1-iminothiomorpholin-4-carboxamide 1-oxide]
130	> 10000	N=S1(=O)CCN(C(=O)N(Cc2ccc(-c3nnc(C(F)F)o3)cc2F)c2cccc(-c3ccco3)c2)CC1 [Compound 44, N-(4-(5-(difluoromethyl)-1,3,4-oxadiazol-2-yl)-2-fluorobenzyl)-N-(3-(furan-2-yl)phenyl)-1-iminothiomorpholin-4-carboxamide 1-oxide]
98.6	> 10000	N=S1(=O)CCN(C(=O)N(Cc2ccc(-c3nnc(C(F)F)o3)cc2F)c2ccsc2)CC1 [Compound 26, N-(4-(5-(difluoromethyl)-1,3,4-oxadiazol-2-yl)-2-fluorobenzyl)-1-imino-N-(thiophen-3-yl)thiomorpholin-4-carboxamide 1-oxide]
62.6	> 10000	N=S1(=O)CCN(C(=O)N(Cc2ccc(-c3nnc(C(F)F)o3)cc2F)c2cccs2)CC1 [Compound 12, N-(4-(5-(difluoromethyl)-1,3,4-oxadiazol-2-yl)-2-fluorobenzyl)-1-imino-N-(thiophen-2-yl)thiomorpholin-4-carboxamide 1-oxide]
200	> 10000	N=S1(=O)CCN(C(=O)N(Cc2c(F)cc(-c3nnc(C(F)F)o3)cc2F)c2ccccc2F)CC1 [Compound 54, N-(4-(5-(difluoromethyl)-1,3,4-oxadiazol-2-y1)-2,6-difluorobenzyl)-N-(2-fluorophenyl)-1-iminothiomorpholin-4-carboxamide 1-oxide]

— patent publication US20260125370A1, “SULFOXIMINE COMPOUNDS AS HISTONE DEACETYLASE 6 INHIBITOR, AND PHARMACEUTICAL COMPOSITION COMPRISING THE SAME” (CHONG KUN DANG PHARMACEUTICAL CORP., priority 2022, published 2026)
